In patent publication US11325929B2 (VivaVisionShanghaiLtd, priority 2017, dated 2022):
pEC50: −log10 of the molar value.

tested on: human T lymphocyte strain Jurkat (ATCC TIB-152) adhesion to ICAM-1; experiment: T-cell adhesion assay (Jurkat cells on ICAM-1 coated plates); format: cell-based; conditions: BCECF-AM labelled Jurkat cells, ICAM-1 coated plate, fluorescence readout; read-out: EC50 of cell adhesion and inhibition
Procedure: Cell Adhesion Inhibition Experiments:
T-cell adhesion assay was performed using human T lymphocyte strain Jurkat (ATCC TIB-152): goat Anti-Human IgG (Fc specific) (Sigma 18885) was diluted to 10 μg/ml in PBS, incubated 100 μL per well/96 well plate at 4° C. for 12 hours. Liquid in the well plate was poured off, blocked with 200 μL of 1% BSA at 37° C. for 90 minutes, and washed three times with PBS. 50 μL of 1 μg/mL ICAM-1 (containing 0.1% BSA, 0.01% Tween 20) was added to each well and incubated at 37° C. for 3 hours. The plate was washed 3 times with assay buffer (20 mM HEPES pH 7.6, 140 mM NaCl, 1 mM MgCl2, 1 mM MnCl2, 0.2% glucose).
The Jurkat […] was centrifuged at 100-G, and cells were resuspended in an assay buffer (20 mM HEPES pH 7.6, 140 mM NaCl, 1 mM MgCl2, 1 mM MnCl2, 0.2% glucose) at 37° C.
2 μl of 1 mM of BCECF-AM per mL of the cell suspension was added. Incubated at 37° C. for 30 minutes, stirred up every 10 minutes during the incubation. After the incubation, the cells were washed with assay buffer at 37° C. The cells were suspended to a concentration of 6×10^6/mL.
The inhibitor was diluted to a final concentration of 2× in assay buffer, and 50 μL of the compound solution and […] of Jurkat cells were mixed at room temperature, and incubated at 37° C. for 30 minutes. 100 μL/well of cells and inhibitors were added to the plate and incubated for 1 hour at room temperature. The total fluorescence was measured by a fluorometer: ex: 485; em: 530; cutoff: 530 to measure the total fluorescence. The plate was washed once with the assay buffer and the fluorescence was measured with a fluorometer: ex: 485; em: 530; cutoff. The results are plotted as inhibition-concentration plots and EC50 is calculated using standard methods.

“2-(2,6-dichloro-4-(2-(methyl(3-hydroxyphenyl)phosphoryl)ethyl)benzylamino)-3-(3,5-(dimethylsulfonyl)phenyl)propionic Acid [Example 36]” showed a pEC50 of 7.52.

same assay, conditions: Homo sapiens; BCECF-AM labelled Jurkat cells, ICAM-1 coated plate, fluorescence readout; read-out: EC50 of cell adhesion and inhibition

Compared with `CS(=O)(=O)c1cccc(C[C@H](NC(=O)c2c(Cl)cc(CCP(=O)(O)c3ccccc3)cc2Cl)C(=O)O)c1` [Example 1, (2s)-2-(2,6-dichloro-4-(2-(hydroxy(phenyl)phosphoryl)ethyl)benzamido)-3-(3-(methylsulfonyl)phenyl)propionic Acid], `CP(=O)(CCc1cc(Cl)c(C(=O)N[C@@H](Cc2cccc(S(C)(=O)=O)c2)C(=O)O)c(Cl)c1)c1ccccc1` (some centres unmarked) [Example 10, (2s)-2-(2,6-dichloro-4-(2-(methyl(phenyl)phosphoryl)ethyl)benzamide)-3-(3-(methylsulfonyl)phenyl)propionic Acid] is 0.41 log units lower in pEC50: 7.52 for the first, 7.11 for the second. The first is the more potent here.

`CS(=O)(=O)c1cccc(C[C@H](NC(=O)c2c(Cl)cc(C#CP(=O)(O)c3cccc(O)c3)cc2Cl)C(=O)O)c1` [Example 2] and `CP(=O)(C#Cc1cc(Cl)c(C(=O)N[C@@H](Cc2cccc(S(C)(=O)=O)c2)C(=O)O)c(Cl)c1)c1cccc(O)c1` (some centres unmarked) [Example 11] are within 0.2 log units of each other in pEC50: 8.03 for the first, 7.87 for the second.

`CS(=O)(=O)c1cccc(C[C@H](NC(=O)c2c(Cl)cc(CCP(=O)(O)c3cccc(O)c3)cc2Cl)C(=O)O)c1` [Example 3, (2s)-2-(2,6-dichloro-4-(2-(hydroxy(m-hydroxyphenyl)phosphoryl)ethyl)benzamido)-3-(3-(methylsulfonyl)phenyl)propionic Acid] and `CP(=O)(CCc1cc(Cl)c(C(=O)N[C@@H](Cc2cccc(S(C)(=O)=O)c2)C(=O)O)c(Cl)c1)c1cccc(O)c1` (some centres unmarked) [Example 14] are the same in pEC50: 8.07 for the first, 8.07 for the second.

Going from `COP(=O)(C#Cc1cc(Cl)c(C(=O)N[C@@H](Cc2cccc(S(C)(=O)=O)c2)C(=O)O)c(Cl)c1)c1ccccc1` (some centres unmarked) [Example 5] to `CP(=O)(C#Cc1cc(Cl)c(C(=O)N[C@@H](Cc2cccc(S(C)(=O)=O)c2)C(=O)O)c(Cl)c1)c1ccccc1` (some centres unmarked) [Example 9], the pEC50 rises from 7.66 to 7.93 (0.27 log units). The second is the more potent here.

Compared with `CCOP(=O)(CCc1cc(Cl)c(C(=O)N[C@@H](Cc2cccc(S(C)(=O)=O)c2)C(=O)O)c(Cl)c1)c1cccc(O)c1` (some centres unmarked) [Example 6, (2s)-2-(2,6-dichloro-4-(2-(ethoxy(m-hydroxyphenyl)phosphoryl)ethyl)benzamido)-3-(3-(methylsulfonyl)phenyl)propionic Acid], `COP(=O)(CCc1cc(Cl)c(C(=O)N[C@@H](Cc2cccc(S(C)(=O)=O)c2)C(=O)O)c(Cl)c1)c1cccc(O)c1` (some centres unmarked) [Example 8, (2s)-2-(2,6-dichloro-4-(2-(methoxy(3-hydroxyphenyl)phosphoryl)ethyl)benzylamido)-3-(3-(methylsulfonyl)phenyl)propionic Acid] is 0.44 log units higher in pEC50: 7.77 for the first, 8.21 for the second. The second is the more potent here.

Going from `COP(=O)(C#Cc1cc(Cl)c(C(=O)N[C@@H](Cc2cccc(S(C)(=O)=O)c2)C(=O)O)c(Cl)c1)c1cccc(O)c1` (some centres unmarked) [Example 7] to `COc1cccc(P(=O)(C#Cc2cc(Cl)c(C(=O)N[C@@H](Cc3cccc(S(C)(=O)=O)c3)C(=O)O)c(Cl)c2)OC)c1` (some centres unmarked) [Example 12], the pEC50 falls from 8.14 to 7.54 (0.60 log units). The first is the more potent here.

First: COc1cccc(P(=O)(O)C#Cc2cc(Cl)c(C(=O)N[C@@H](Cc3cccc(S(C)(=O)=O)c3)C(=O)O)c(Cl)c2)c1 [Example 13]
Second: CS(=O)(=O)c1cccc(C[C@H](NC(=O)c2c(Cl)cc(C#CP(=O)(O)c3ccccc3)cc2Cl)C(=O)O)c1 [Example 16]
The pEC50 of the first is 0.60 log units lower: 7.54 for the first, 8.14 for the second.

First: CP(=O)(C#Cc1cc(Cl)c(C(=O)N[C@@H](Cc2cccc(S(C)(=O)=O)c2)C(=O)O)c(Cl)c1)c1ccc(O)cc1 (some centres unmarked) [Example 15]
Second: CP(=O)(CCc1cc(Cl)c(C(=O)N[C@@H](CNC(=O)c2cccs2)C(=O)O)c(Cl)c1)c1cccc(O)c1 (some centres unmarked) [Example 17, (2s)-2-(2,6-dichloro-4-(2-(methyl(3-hydroxyphenyl)phosphoryl)ethyl)benzamido)-3-(2-thenoylamide)propyl Acid]
The pEC50 of the first is 0.92 log units higher: 8.74 for the first, 7.82 for the second.
